Measurements: patent US20170183306A1, “CYCLIC COMPOUNDS HAVING A 1,3 DIAMINO-FUNCTIONALITY FOR USE IN THE TREATMENT OF HIV INFECTION” (Universite Paris Descartes, priority 2014, published 2017)
Structures can show the parent of a compound that is named as a salt.

What was measured:
Type in all cases: cell-based
HeLa-p4 cells = test: Cell viability assay (MTS) on HeLa-p4 cells; details: cell viability
Procedure: (§1) HeLa-p4 cells are HeLa CD4 LTR-LacZ wherein LacZ expression is induced by the trans-activating protein Tat of HIV, making possible the precise quantification of HIV-1 infectivity from a single replication cycle. HeLa-CD4 cells growing exponentially at a density of 1×10^4/mL were placed in 96-well plates and infected the following day with 1 ng of HIV p24 antigen in the presence of different concentrations of compounds. The titles for a single cycle of the viruses were determined 48 hours after infection by quantifying the beta-galactosidase activity in lysates P4 by colorimetric test (CPRG, Promega) based on the cleavage of chlorophenol red-beta-D-galactopyranoside (CPRG) by beta-galactosidase. A cell viability assay measuring the absorbance at […] using the yellow tetrazolium reagent MTS [[…]] (Promega) was carried out.
(§2) For the helap4 cells experiments, the efficacy of the compounds is determined in comparison with control cells containing wild type NL4-3 virus alone (i.e. without any added compound) and is expressed as percentage of control. Then, the viral replication was increased for several compounds at the 50 and 100 μM concentrations with an absence of cytotoxic effects at the same concentrations (MTS test) (table 1).

[1] = tested on: wild type NL4-3 virus (HIV-1) in HeLa-p4 cells; test: HeLa-p4 single-cycle HIV-1 infectivity, beta-galactosidase CPRG test; details: Human immunodeficiency virus 1, NL43, HeLaP4, 48 hours after infection, control = NL4-3 virus alone; for activity at 50 µM: read-out: Hela-p4 CPRG 50 μM; for activity at 100 µM: read-out: Hela-p4 CPRG 100 μM
Procedure: as §1, §2

J-Lat cells = test: J-Lat cells, percentage of GFP-positive cells by cytometry; details: 24 h, compound alone
Procedure: The J-Lat were grown in RPMI 1640 medium (Gibco-BRL) supplemented with 10% fetal bovine serum, 50 U/ml of penicillin, […] of streptomycin at 37 uC in a humidified 95% air/5% CO2 atmosphere. The cells were plated at 5.105 cells in a 96 well-plate. TNF ? was purchased from Immunosource. SAHA (suberoylanilide hydroxamic acid), prostratin (12-deoxyphorbol-13-acetate) and vorinostat were obtained from Sigma-Aldrich. The J-Lat cells were treated for 24 h with the different compounds alone. The cells were washed twice in PBS, re-suspended in PBS containing 4% paraformaldehyde and fixed for 30 min. Cells were next washed and re-suspended in PBS. The percentage of GFP-positive cells was measured with a LSRFortessa cytometer (Becton-Dickinson) using FACSDiva Version 6.1.3 according to the manufacturer's instructions.
The results for the J-Lat cells experiments are expressed as a percentage of the living fluorescent cells. In this model, some slight increase of viral production measured by fluorescence are quantified (table 1).

Structure (SMILES): N[C@@H]1C[C@H](N)CN(c2cccc(C(=O)Nc3ccccc3)c2)C1 [ECO02-003-C, 3-(3,5-diaminopiperidin-1-yl)-N-phenylbenzamide]
- Hela-p4 MTS 50 μM (HeLa-p4 cells): 105
- Hela-p4 MTS 100 μM (HeLa-p4 cells): 60
- activity at 50 µM [1]: 140%
- activity at 100 µM [1]: 118%
- J-lat 50 μM (J-Lat cells): 0.4 percentage of the living fluorescent cells
- J-lat 100 μM (J-Lat cells): 0.5 percentage of the living fluorescent cells

Structure (SMILES): COc1ccc(CCN2C[C@H](N)C[C@H](N)C2)cc1 [ECO02-025-C, 1-(4-methoxyphenethyl)piperidine-3,5-diamine]
- Hela-p4 MTS 50 μM (HeLa-p4 cells): 112
- Hela-p4 MTS 100 μM (HeLa-p4 cells): 82
- activity at 50 µM [1]: 90%
- activity at 100 µM [1]: 123%
- J-lat 50 μM (J-Lat cells): 0.3 percentage of the living fluorescent cells
- J-lat 100 μM (J-Lat cells): 0.3 percentage of the living fluorescent cells

Structure (SMILES): Cc1cccc(CCN2C[C@H](N)C[C@H](N)C2)c1 [ECO01-030-C, 1-(3-methylphenethyl)piperidine-3,5-diamine]
- Hela-p4 MTS 50 μM (HeLa-p4 cells): 84
- Hela-p4 MTS 100 μM (HeLa-p4 cells): 82
- activity at 50 µM [1]: 125%
- activity at 100 µM [1]: 103%
- J-lat 50 μM (J-Lat cells): 0.1 percentage of the living fluorescent cells
- J-lat 100 μM (J-Lat cells): 0 percentage of the living fluorescent cells

Structure (SMILES): COc1ccc(CN2C[C@H](N)C[C@H](N)C2)cc1OC [PDA25, 1-(3,4-dimethoxybenzyl)piperidine-3,5-diamine]
- Hela-p4 MTS 50 μM (HeLa-p4 cells): 97
- Hela-p4 MTS 100 μM (HeLa-p4 cells): 93
- Hela-p4 MTS 200 μM (HeLa-p4 cells): 58
- activity at 50 µM [1]: 183%
- activity at 100 µM [1]: 184%
- activity at 200 µM [1]: 227%
- J-lat 50 μM (J-Lat cells): 0 percentage of the living fluorescent cells
- J-lat 100 μM (J-Lat cells): 0.2 percentage of the living fluorescent cells

Structure (SMILES): CN(C)c1ccc(CN2C[C@H](NC(=O)OC(C)(C)C)C[C@H](NC(=O)OC(C)(C)C)C2)cc1 [ECO02-062-C]
- Hela-p4 MTS 50 μM (HeLa-p4 cells): 91
- Hela-p4 MTS 100 μM (HeLa-p4 cells): 84
- Hela-p4 MTS 200 μM (HeLa-p4 cells): 73
- activity at 50 µM [1]: 239%
- activity at 100 µM [1]: 269%
- activity at 200 µM [1]: 401%
- J-lat 50 μM (J-Lat cells): 0.7 percentage of the living fluorescent cells

Structure (SMILES): N[C@@H]1C[C@H](N)CN(CCc2ccccc2)C1 [ECO02-027-C, 1-phenethylpiperidine-3,5-diamine]
- Hela-p4 MTS 50 μM (HeLa-p4 cells): 100
- Hela-p4 MTS 100 μM (HeLa-p4 cells): 45
- activity at 50 µM [1]: 75%
- activity at 100 µM [1]: 52%
- J-lat 50 μM (J-Lat cells): 8.7 percentage of the living fluorescent cells
- J-lat 100 μM (J-Lat cells): 2.3 percentage of the living fluorescent cells

Structure (SMILES): N[C@@H]1C[C@H](N)CN(CCc2ccc(O)cc2)C1 [ECO02-028-C, 4-(2-(3,5-diaminopiperidin-1-yl)ethyl)phenol]
- Hela-p4 MTS 50 μM (HeLa-p4 cells): 100
- Hela-p4 MTS 100 μM (HeLa-p4 cells): 83
- activity at 50 µM [1]: 107%
- activity at 100 µM [1]: 89%
- J-lat 50 μM (J-Lat cells): 0.3 percentage of the living fluorescent cells
- J-lat 100 μM (J-Lat cells): 0.2 percentage of the living fluorescent cells

Structure (SMILES): N[C@@H]1C[C@H](N)CN(c2ccc(C(=O)N3CCCCCC3)cc2)C1 [ECO02-007-C, azepan-1-yl(4-(3,5-diaminopiperidin-1-yl)phenyl)methanone]
- Hela-p4 MTS 50 μM (HeLa-p4 cells): 97
- Hela-p4 MTS 100 μM (HeLa-p4 cells): 98
- activity at 50 µM [1]: 87%
- activity at 100 µM [1]: 98%
- J-lat 50 μM (J-Lat cells): 0.6 percentage of the living fluorescent cells

Structure (SMILES): COc1ccc(CN2C[C@H](N)C[C@H](N)C2)cc1 [AB-378, (3S,5R)-1-(4-methoxybenzyl)piperidine-3,5-diamine]
- Hela-p4 MTS 50 μM (HeLa-p4 cells): 98
- Hela-p4 MTS 100 μM (HeLa-p4 cells): 94
- Hela-p4 MTS 200 μM (HeLa-p4 cells): 72
- activity at 50 µM [1]: 169%
- activity at 100 µM [1]: 199%
- activity at 200 µM [1]: 312%
- J-lat 50 μM (J-Lat cells): 0.2 percentage of the living fluorescent cells
- J-lat 100 μM (J-Lat cells): 1.7 percentage of the living fluorescent cells

Structure (SMILES): COc1cccc(CCN2C[C@H](NS(C)(=O)=O)C[C@H](NS(C)(=O)=O)C2)c1 [ECO02-073-B2, N,N′-(1-(3-methoxyphenethyl)piperidine-3,5-diyl)dimethanesulfonamide]
- Hela-p4 MTS 50 μM (HeLa-p4 cells): 96
- Hela-p4 MTS 100 μM (HeLa-p4 cells): 94
- Hela-p4 MTS 200 μM (HeLa-p4 cells): 69
- activity at 50 µM [1]: 103%
- activity at 100 µM [1]: 127%
- activity at 200 µM [1]: 253%
- J-lat 50 μM (J-Lat cells): 0.6 percentage of the living fluorescent cells

Structure (SMILES): COc1cccc(CCN2C[C@H](NC(=O)OC(C)(C)C)C[C@H](NC(=O)OC(C)(C)C)C2)c1 [ECO03-03-C, di-tert-butyl (1-(3-methoxyphenethyl)piperidine-3,5-diyl)dicarbamate]
- Hela-p4 MTS 50 μM (HeLa-p4 cells): 105
- Hela-p4 MTS 100 μM (HeLa-p4 cells): 104
- Hela-p4 MTS 200 μM (HeLa-p4 cells): 104
- activity at 50 µM [1]: 148%
- activity at 100 µM [1]: 341%
- activity at 200 µM [1]: 440%
- J-lat 50 μM (J-Lat cells): 0.4 percentage of the living fluorescent cells

Structure (SMILES): CC(C)(C)OC(=O)N[C@@H]1C[C@H](NC(=O)OC(C)(C)C)CN(Cc2ccc(N3CCCC3)cc2)C1 [ECO02-059-C, di-tert-butyl (1-(4-(pyrrolidin-1-yl)benzyl)piperidine-3,5-diyl)dicarbamate]
- Hela-p4 MTS 50 μM (HeLa-p4 cells): 95
- Hela-p4 MTS 100 μM (HeLa-p4 cells): 67
- activity at 50 µM [1]: 198%
- activity at 100 µM [1]: 177%
- J-lat 50 μM (J-Lat cells): 0.5 percentage of the living fluorescent cells

Structure (SMILES): COc1ccccc1CCN1C[C@H](N)C[C@H](N)C1 [ECO01-031-C, 1-(2-methoxyphenethyl)piperidine-3,5-diamine]
- Hela-p4 MTS 50 μM (HeLa-p4 cells): 88
- Hela-p4 MTS 100 μM (HeLa-p4 cells): 82
- activity at 50 µM [1]: 88%
- activity at 100 µM [1]: 108%
- J-lat 50 μM (J-Lat cells): 0.1 percentage of the living fluorescent cells
- J-lat 100 μM (J-Lat cells): 4.8 percentage of the living fluorescent cells

Structure (SMILES): COc1cccc(CCN2C[C@H](N)C[C@H](N)C2)c1 [ECO01-026-C2, 1-(3-methoxyphenethyl)piperidine-3,5-diamine]
- Hela-p4 MTS 50 μM (HeLa-p4 cells): 106
- Hela-p4 MTS 100 μM (HeLa-p4 cells): 98
- Hela-p4 MTS 200 μM (HeLa-p4 cells): 72
- activity at 50 µM [1]: 116%
- activity at 100 µM [1]: 169%
- activity at 200 µM [1]: 234%
- J-lat 50 μM (J-Lat cells): 3.3 percentage of the living fluorescent cells

Structure (SMILES): N[C@@H]1C[C@H](N)CN(Cc2cccc3cnccc23)C1 [ECO02-068-C, 1-(isoquinolin-5-ylmethyl)piperidine-3,5-diamine trihydrochloride]
- Hela-p4 MTS 50 μM (HeLa-p4 cells): 85
- Hela-p4 MTS 100 μM (HeLa-p4 cells): 83
- activity at 50 µM [1]: 105%
- activity at 100 µM [1]: 137%
- J-lat 50 μM (J-Lat cells): 0.4 percentage of the living fluorescent cells

Structure (SMILES): N[C@@H]1C[C@H](N)CN(CCCc2ccccc2)C1 [ECO01-035-C, 1-(3-phenylpropyl)piperidine-3,5-diamine]
- Hela-p4 MTS 50 μM (HeLa-p4 cells): 105
- Hela-p4 MTS 100 μM (HeLa-p4 cells): 88
- activity at 50 µM [1]: 169%
- activity at 100 µM [1]: 147%
- J-lat 50 μM (J-Lat cells): 1.5 percentage of the living fluorescent cells
- J-lat 100 μM (J-Lat cells): 2.8 percentage of the living fluorescent cells

Structure (SMILES): N[C@@H]1C[C@H](N)CN(c2ccc3[nH]ccc3c2)C1 [AB-86, (3S,5R)-1-(1H-indol-5-yl)piperidine-3,5-diamine]
- Hela-p4 MTS 50 μM (HeLa-p4 cells): 81
- Hela-p4 MTS 100 μM (HeLa-p4 cells): 74
- activity at 50 µM [1]: 80%
- activity at 100 µM [1]: 66%
- J-lat 50 μM (J-Lat cells): 0.1 percentage of the living fluorescent cells
- J-lat 100 μM (J-Lat cells): 2.6 percentage of the living fluorescent cells

Structure (SMILES): COc1ccc2c(CN3C[C@H](NC(=O)OC(C)(C)C)C[C@H](NC(=O)OC(C)(C)C)C3)cn(C)c2c1 [ECO02-060-C, di-tert-butyl (1-((6-methoxy-1-methyl-1H-indol-3-yl)methyl)piperidine-3,5-diyl)dicarbamate]
- Hela-p4 MTS 50 μM (HeLa-p4 cells): 69
- Hela-p4 MTS 100 μM (HeLa-p4 cells): 54
- Hela-p4 MTS 200 μM (HeLa-p4 cells): 43
- activity at 50 µM [1]: 178%
- activity at 100 µM [1]: 221%
- activity at 200 µM [1]: 217%
- J-lat 50 μM (J-Lat cells): 0.6 percentage of the living fluorescent cells

Structure (SMILES): CC(O)c1ccc(C(=O)NC(CCCCN)C(=O)N2C[C@H](N)C[C@H](N)C2)cc1 (some centres unmarked) [AB289-1, N-(6-amino-1-(3,5-diaminopiperidin-1-yl)-1-oxohexan-2-yl)-4-(1-hydroxyethyl)benzamide]
- Hela-p4 MTS 50 μM (HeLa-p4 cells): 103
- Hela-p4 MTS 100 μM (HeLa-p4 cells): 100
- Hela-p4 MTS 200 μM (HeLa-p4 cells): 74
- activity at 50 µM [1]: 157%
- activity at 100 µM [1]: 236%
- activity at 200 µM [1]: 294%
- J-lat 50 μM (J-Lat cells): 0 percentage of the living fluorescent cells
- J-lat 100 μM (J-Lat cells): 0.8 percentage of the living fluorescent cells
